These are literature values, as cited in patent publication US20160052846A1, “METHOD OF DEMULSIFYING AND PURIFYING ORGANIC PRODUCTS FROM AN EMULSION” (CODEXIS, INC., priority 2012, published 2016).

Read-outs that look alike come from different tables or passages of the source.

For this data set the following is noted: for Water sol: in words, no temperature.

Regarding `CCCC(C)O` (centres unmarked) [2-pentanol, pentan-2-ol], under “at 20° C.”, the “Water sol (g per 100 g)” value is 4 at 20 °C g per 100 g.

On to `CCCCCO` [Amyl alcohol, pentan-1-ol], for which, under “at 22° C.”, the “Water sol (g per 100 g)” value was 2.7 at 22 °C g per 100 g.

Consider `CC(C)CO` [Isobutanol, 2-methylpropan-1-ol], for which the “Water sol (g per 100 g)” value (at 15° C.) is 10 at 15 °C g per 100 g.

For the molecule `CC(C)CCO` [Isopentanol, 3-methylbutan-1-ol], under “at 14° C.”, the “Water sol (g per 100 g)” value is 2 at 14 °C g per 100 g.

For the molecule `CC(C)O` [Isopropanol, propan-2-ol], the Water sol result is recorded as “soluble”.

Consider `CC(C)(C)CO` [Neopentyl alcohol, 2,2-dimethylpropan-1-ol], for which the Water sol entry is on record as “Slightly soluble”.

As to `CC(C)C(C)O` (centres unmarked) [Sec iso amyl alcohol, 3-methylbutan-2-ol], the Water sol result is on record as “Slightly soluble”.

On to propan-1-ol [Propanol], for which the Water sol result is given as “soluble”.
